Holding throughout (experiment): relative viability (nuclei count vs DMSO), 5 days (fraction); higher = more cells survive
Compound in the assay “CX-5461 + Tozasertib”: Cc1cnc(CNC(=O)c2c(=O)c3ccc(N4CCCN(C)CC4)nc3n3c2sc2ccccc23)cn1 [CX-5461] + Cc1cc(Nc2cc(N3CCN(C)CC3)nc(Sc3ccc(NC(=O)C4CC4)cc3)n2)n[nH]1 [Tozasertib] (partner 0.1 µM)
The procedure, abridged: (§1)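 Lung cancer cell lines, seeded in 1536-well plates, were treated the following day by pin tool with a single drug or with five library-drug doses (not always all listed) in √10 steps on top of a fixed anchor-drug dose. Cells were fixed and nuclei stained in one step after 5 days, and nuclei were counted. Relative viability is the nuclei count for treated wells divided by that for vehicle wells, reported as medians of duplicate plates.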

Compound in the assay “IMD-0354 + Bortezomib”: O=C(Nc1cc(C(F)(F)F)cc(C(F)(F)F)c1)c1cc(Cl)ccc1O [IMD-0354] + CC(C)C[C@H](NC(=O)[C@H](Cc1ccccc1)NC(=O)c1cnccn1)B(O)O [Bortezomib] (partner 0.002 µM)
The procedure, abridged: as §1

Compound in the assay “IMD-0354 + Foretinib”: O=C(Nc1cc(C(F)(F)F)cc(C(F)(F)F)c1)c1cc(Cl)ccc1O [IMD-0354] + COc1cc2c(Oc3ccc(NC(=O)C4(C(=O)Nc5ccc(F)cc5)CC4)cc3F)ccnc2cc1OCCCN1CCOCC1 [Foretinib] (partner 0.25 µM)
The method in brief:
as §1

Compound in the assay “IMD-0354 + Linsitinib”: O=C(Nc1cc(C(F)(F)F)cc(C(F)(F)F)c1)c1cc(Cl)ccc1O [IMD-0354] + C[C@]1(O)C[C@@H](c2nc(-c3ccc4ccc(-c5ccccc5)nc4c3)c3c(N)nccn32)C1 [Linsitinib] (partner 1 µM)
The method in brief: as §1

HARA: the relative viability stood at 0.137 in the assay with CX-5461 + Tozasertib (first compound 0.01 µM); 0.115 with CX-5461 + Tozasertib (first compound 0.03162 µM); 0.138 with CX-5461 + Tozasertib (first compound 0.1 µM); 0.189 in the assay with CX-5461 + Tozasertib (first compound 1 µM); 0.948 in the assay with IMD-0354 + Bortezomib (first compound 0.04 µM); 1.13 with IMD-0354 + Bortezomib (first compound 0.1265 µM). Besides, the relative viability in the assay with IMD-0354 + Bortezomib (first compound 0.4 µM) amounted to 0.543; with IMD-0354 + Bortezomib (first compound 1.265 µM), 0.122; in the assay with IMD-0354 + Bortezomib (first compound 4 µM) it was 0.213; with IMD-0354 + Foretinib (first compound 0.04 µM), 1.07; with IMD-0354 + Foretinib (first compound 0.1265 µM), 0.866; in the assay with IMD-0354 + Foretinib (first compound 0.4 µM), 0.568. The relative viability in the assay with IMD-0354 + Foretinib (first compound 1.265 µM) amounted to 0.159; with IMD-0354 + Foretinib (first compound 4 µM), 0.125; with IMD-0354 + Linsitinib (first compound 0.04 µM), 1.08; with IMD-0354 + Linsitinib (first compound 0.1265 µM), 0.867; with IMD-0354 + Linsitinib (first compound 0.4 µM) it was 0.577; with IMD-0354 + Linsitinib (first compound 1.265 µM), 0.119. Besides, the relative viability with IMD-0354 + Linsitinib (first compound 4 µM) was found to be 0.136.

Regarding HCC-15, the relative viability came to 0.434 with CX-5461 + Tozasertib (first compound 0.01 µM); 0.586 with CX-5461 + Tozasertib (first compound 0.03162 µM); 0.333 in the assay with CX-5461 + Tozasertib (first compound 0.1 µM); 0.321 with CX-5461 + Tozasertib (first compound 0.3162 µM); 0.176 in the assay with CX-5461 + Tozasertib (first compound 1 µM); 1 with IMD-0354 + Bortezomib (first compound 0.04 µM). Further, the relative viability turned out to be 0.962 with IMD-0354 + Bortezomib (first compound 0.1265 µM); 0.549 with IMD-0354 + Bortezomib (first compound 0.4 µM); 0.346 with IMD-0354 + Bortezomib (first compound 1.265 µM); 0.119 with IMD-0354 + Bortezomib (first compound 4 µM); 1.03 with IMD-0354 + Foretinib (first compound 0.04 µM); 0.891 with IMD-0354 + Foretinib (first compound 0.1265 µM). The relative viability with IMD-0354 + Foretinib (first compound 0.4 µM) is 0.636; with IMD-0354 + Foretinib (first compound 1.265 µM), 0.178; with IMD-0354 + Foretinib (first compound 4 µM) it was 0.152; with IMD-0354 + Linsitinib (first compound 0.04 µM), 0.801; with IMD-0354 + Linsitinib (first compound 0.1265 µM) it was 0.812; with IMD-0354 + Linsitinib (first compound 0.4 µM), 0.489. Moreover, the relative viability in the assay with IMD-0354 + Linsitinib (first compound 1.265 µM) worked out at 0.376; with IMD-0354 + Linsitinib (first compound 4 µM), 0.141.

On to HCC-44, for which the relative viability is 1.05 in the assay with CX-5461 + Tozasertib (first compound 0.01 µM); 1.25 with CX-5461 + Tozasertib (first compound 0.03162 µM); 0.922 with CX-5461 + Tozasertib (first compound 0.1 µM); 0.811 in the assay with CX-5461 + Tozasertib (first compound 0.3162 µM); 0.29 with CX-5461 + Tozasertib (first compound 1 µM); 0.913 with IMD-0354 + Bortezomib (first compound 0.04 µM). Further, the relative viability was found to be 0.918 with IMD-0354 + Bortezomib (first compound 0.1265 µM); 0.35 with IMD-0354 + Bortezomib (first compound 0.4 µM); 0.213 in the assay with IMD-0354 + Bortezomib (first compound 1.265 µM); 0.179 with IMD-0354 + Bortezomib (first compound 4 µM); 0.68 with IMD-0354 + Linsitinib (first compound 0.04 µM); 0.573 with IMD-0354 + Linsitinib (first compound 0.1265 µM). In addition, the relative viability in the assay with IMD-0354 + Linsitinib (first compound 0.4 µM) was found to be 0.394; with IMD-0354 + Linsitinib (first compound 1.265 µM), 0.297; with IMD-0354 + Linsitinib (first compound 4 µM), 0.128.

As to IA-LM, the relative viability with IMD-0354 + Bortezomib (first compound 0.04 µM) was 0.866; with IMD-0354 + Bortezomib (first compound 0.1265 µM) it was 0.977; in the assay with IMD-0354 + Bortezomib (first compound 0.4 µM), 0.76; in the assay with IMD-0354 + Bortezomib (first compound 1.265 µM) it was 0.102; with IMD-0354 + Bortezomib (first compound 4 µM), 0.121; with IMD-0354 + Foretinib (first compound 0.04 µM), 1.17. For the same cell line, the relative viability was 1.17 with IMD-0354 + Foretinib (first compound 0.1265 µM); 0.384 with IMD-0354 + Foretinib (first compound 0.4 µM); 0.42 in the assay with IMD-0354 + Foretinib (first compound 1.265 µM); 0.0844 with IMD-0354 + Foretinib (first compound 4 µM); 0.653 with IMD-0354 + Linsitinib (first compound 0.04 µM); 0.486 with IMD-0354 + Linsitinib (first compound 0.1265 µM). Further, the figures for the relative viability with IMD-0354 + Linsitinib (first compound 0.4 µM), in the assay with IMD-0354 + Linsitinib (first compound 1.265 µM) and in the assay with IMD-0354 + Linsitinib (first compound 4 µM) were 0.745, 0.0945 and 0.16, respectively.

LK-2: the relative viability with CX-5461 + Tozasertib (first compound 0.01 µM) stood at 0.18; in the assay with CX-5461 + Tozasertib (first compound 0.03162 µM), 0.182; with CX-5461 + Tozasertib (first compound 0.1 µM) it was 0.162; in the assay with CX-5461 + Tozasertib (first compound 1 µM), 0.183; with IMD-0354 + Foretinib (first compound 0.04 µM), 1.76; in the assay with IMD-0354 + Foretinib (first compound 0.1265 µM) it was 1.14. Moreover, the relative viability amounted to 0.515 with IMD-0354 + Foretinib (first compound 0.4 µM); 1.11 with IMD-0354 + Foretinib (first compound 1.265 µM); 0.222 with IMD-0354 + Foretinib (first compound 4 µM); 0.527 with IMD-0354 + Linsitinib (first compound 0.04 µM); 0.505 with IMD-0354 + Linsitinib (first compound 0.1265 µM); 0.863 with IMD-0354 + Linsitinib (first compound 1.265 µM). Also, in the assay with IMD-0354 + Linsitinib (first compound 4 µM), the relative viability amounted to 0.19.

For NCI-H358, the relative viability in the assay with CX-5461 + Tozasertib (first compound 0.01 µM) stood at 0.108; with CX-5461 + Tozasertib (first compound 0.03162 µM), 0.0952; with CX-5461 + Tozasertib (first compound 0.1 µM) it was 0.117; with CX-5461 + Tozasertib (first compound 0.3162 µM), 0.103; with CX-5461 + Tozasertib (first compound 1 µM) it was 0.0892; in the assay with IMD-0354 + Foretinib (first compound 0.04 µM), 0.753. Moreover, the relative viability with IMD-0354 + Foretinib (first compound 0.1265 µM) amounted to 0.828; with IMD-0354 + Foretinib (first compound 0.4 µM) it was 0.372; in the assay with IMD-0354 + Foretinib (first compound 1.265 µM), 0.163; in the assay with IMD-0354 + Foretinib (first compound 4 µM), 0.126; with IMD-0354 + Linsitinib (first compound 0.04 µM) it was 0.993; with IMD-0354 + Linsitinib (first compound 0.1265 µM) it was 0.773. The relative viability is 0.385 with IMD-0354 + Linsitinib (first compound 0.4 µM), 0.23 with IMD-0354 + Linsitinib (first compound 1.265 µM) and 0.221 in the assay with IMD-0354 + Linsitinib (first compound 4 µM).

Regarding NCI-H522, the relative viability with CX-5461 + Tozasertib (first compound 0.01 µM) amounted to 0.521; with CX-5461 + Tozasertib (first compound 0.03162 µM), 0.44; with CX-5461 + Tozasertib (first compound 0.1 µM), 0.597; with CX-5461 + Tozasertib (first compound 1 µM) it was 0.646.

On to NCI-H1299, for which the relative viability with IMD-0354 + Bortezomib (first compound 0.04 µM) came to 0.938; with IMD-0354 + Bortezomib (first compound 0.1265 µM), 0.965; in the assay with IMD-0354 + Bortezomib (first compound 0.4 µM) it was 0.841; in the assay with IMD-0354 + Bortezomib (first compound 1.265 µM) it was 0.438; with IMD-0354 + Bortezomib (first compound 4 µM), 0.193; with IMD-0354 + Foretinib (first compound 0.04 µM), 1.03. In addition, the relative viability worked out at 1.06 with IMD-0354 + Foretinib (first compound 0.1265 µM); 0.787 with IMD-0354 + Foretinib (first compound 0.4 µM); 0.267 with IMD-0354 + Foretinib (first compound 1.265 µM); 0.179 in the assay with IMD-0354 + Foretinib (first compound 4 µM); 0.933 with IMD-0354 + Linsitinib (first compound 0.04 µM); 0.895 with IMD-0354 + Linsitinib (first compound 0.1265 µM). Also, the relative viability with IMD-0354 + Linsitinib (first compound 0.4 µM) turned out to be 0.839; with IMD-0354 + Linsitinib (first compound 1.265 µM) it was 0.168; with IMD-0354 + Linsitinib (first compound 4 µM), 0.158.

For NCI-H1395, the relative viability with CX-5461 + Tozasertib (first compound 0.01 µM) was determined as 0.811; with CX-5461 + Tozasertib (first compound 0.03162 µM), 0.796; in the assay with CX-5461 + Tozasertib (first compound 0.1 µM) it was 0.757; with CX-5461 + Tozasertib (first compound 0.3162 µM), 0.574; with CX-5461 + Tozasertib (first compound 1 µM) it was 0.588; with IMD-0354 + Foretinib (first compound 0.04 µM), 1.08. Moreover, the relative viability with IMD-0354 + Foretinib (first compound 0.1265 µM) amounted to 0.969; in the assay with IMD-0354 + Foretinib (first compound 0.4 µM) it was 0.98; in the assay with IMD-0354 + Foretinib (first compound 1.265 µM), 0.449; in the assay with IMD-0354 + Foretinib (first compound 4 µM) it was 0.306; with IMD-0354 + Linsitinib (first compound 0.04 µM), 1.02; with IMD-0354 + Linsitinib (first compound 0.1265 µM), 1.28. The relative viability with IMD-0354 + Linsitinib (first compound 0.4 µM) is 0.99; with IMD-0354 + Linsitinib (first compound 1.265 µM), 0.395; with IMD-0354 + Linsitinib (first compound 4 µM), 0.42.

Source of the values: the supplement of paper PMC10307832.
